IC50 and Activity data for eight molecules are collected here from ChEMBL document CHEMBL5390312, “Discovery of Tumor-Targeted 6-Methyl Substituted Pemetrexed and Related Antifolates with Selective Loss of RFC Transport” (ACS Med Chem Lett, 2023).

Activity calls are given as the source filed them. The rule behind the calls is not given here.

As usually defined, the IC50 is the concentration that inhibits the measured activity by half.

Common to all, as to assay type: functional, cell-based
Experiment [1] is described as follows: Antiproliferative activity against chinese hamster R2 cells assessed as inhibition of cell growth incubated for 96 h by CellTiter-Blue cell viability assay. The settings on record: Cricetulus griseus, R2, 96 h. In general terms: Resazurin is reduced to fluorescent resorufin, in cell work by metabolically active cells.
Experiment [2] relates to KB. The experiment in a line: Antiproliferative activity against human KB cells assessed as inhibition of cell growth upto 1000 nM incubated for 96 hrs in the presence of adenosine by CellTiter-Blue cell viability assay.
The subject of experiment [3] is KB. The experiment in a line: Antiproliferative activity against human KB cells assessed as inhibition of cell growth upto 1000 nM incubated for 96 hrs in the presence of AICA by CellTiter-Blue cell viability assay.
The test system of experiment [4] is KB. The experiment in a line: Antiproliferative activity against human KB cells assessed as inhibition of cell growth upto 1000 nM incubated for 96 hrs in the presence of thymidylate by CellTiter-Blue cell viability assay.
In experiment [5] the test system is KB. The experiment in a line: Antiproliferative activity against human KB cells assessed as inhibition of cell growth upto 1000 nM incubated for 96 hrs in the presence of thymidine by CellTiter-Blue cell viability assay.
Experiment [6] concerns KB. The experiment in a line: Antiproliferative activity against human KB cells assessed as inhibition of cell growth upto 1000 nM incubated for 96 hrs in the presence of glycine by CellTiter-Blue cell viability assay.

Consider `Cc1[nH]c2nc(N)[nH]c(=O)c2c1CCc1ccc(C(=O)N[C@@H](CCC(=O)O)C(=O)O)s1`, for which, in experiment [1], the IC50 is greater than 1 µM. Also, the outcome with KB [2] and with KB [3] was inactive.
Regarding `Nc1nc2[nH]cc(CCCc3ccc(C(=O)N[C@@H](CCC(=O)O)C(=O)O)cc3)c2c(=O)[nH]1`, in experiment [1], the IC50 is greater than 1 µM. The result with KB [4] was Active. Moreover, the result with KB [2], in the experiment on KB [5], in the experiment on KB [6] and with KB [3] was inactive.
In the case of `Cc1[nH]c2nc(N)[nH]c(=O)c2c1CCc1ccc(C(=O)N[C@@H](CCC(=O)O)C(=O)O)c(F)c1`, the IC50 in experiment [1] is greater than 1 µM. Moreover, the outcome with KB [2] and in the experiment on KB [3] was inactive.
Take `Nc1nc2[nH]cc(CCc3ccc(C(=O)N[C@@H](CCC(=O)O)C(=O)O)s3)c2c(=O)[nH]1`: the half-maximal inhibitory concentration (IC50) in experiment [1] was greater than 1 µM.
Consider `Cc1[nH]c2nc(N)[nH]c(=O)c2c1CCc1ccc(C(=O)N[C@@H](CCC(=O)O)C(=O)O)cc1`, for which the half-inhibitory concentration (IC50) in experiment [1] was greater than 1 µM. Moreover, the outcome in the experiment with KB [2] and in the experiment on KB [3] was inactive.
With `Cc1[nH]c2nc(N)[nH]c(=O)c2c1CCCc1ccc(C(=O)N[C@@H](CCC(=O)O)C(=O)O)cc1`, in experiment [1], the IC50 is greater than 1 µM. The result in the experiment on KB [2] and in the experiment with KB [3] was inactive.
As to `Nc1nc2[nH]cc(CCc3ccc(C(=O)N[C@@H](CCC(=O)O)C(=O)O)c(F)c3)c2c(=O)[nH]1`, the 50% inhibitory concentration (IC50) in experiment [1] was greater than 1 µM. Besides, in the experiment on KB [4], the outcome was Active. Further, the outcome in the experiment on KB [2], in the experiment with KB [5] and with KB [3] was inactive.
Turning to `Nc1nc2[nH]cc(CCc3ccc(C(=O)N[C@@H](CCC(=O)O)C(=O)O)cc3)c2c(=O)[nH]1` [PEMETREXED], the IC50 in experiment [1] was greater than 1 µM. Besides, the outcome in the experiment with KB [4] was Active. The outcome with KB [2], in the experiment with KB [5] and in the experiment with KB [3] was inactive.
